Consider 14 compounds from paper PMC10350924, “Design, Synthesis, and Pharmacological Characterization of a Potent Soluble Epoxide Hydrolase Inhibitor for the Treatment of Acute Pancreatitis” (Journal of Medicinal Chemistry, 2023).

As a reminder, the IC50 is the concentration that inhibits the measured activity by half.

In one assay the target is T1, Human recombinant sEH (Homo sapiens, UniProt P34913).
T1 construct: made in house; host or cells: Sf9 insect cells (recombinant baculovirus)
T1 sequence (P34913 1-555): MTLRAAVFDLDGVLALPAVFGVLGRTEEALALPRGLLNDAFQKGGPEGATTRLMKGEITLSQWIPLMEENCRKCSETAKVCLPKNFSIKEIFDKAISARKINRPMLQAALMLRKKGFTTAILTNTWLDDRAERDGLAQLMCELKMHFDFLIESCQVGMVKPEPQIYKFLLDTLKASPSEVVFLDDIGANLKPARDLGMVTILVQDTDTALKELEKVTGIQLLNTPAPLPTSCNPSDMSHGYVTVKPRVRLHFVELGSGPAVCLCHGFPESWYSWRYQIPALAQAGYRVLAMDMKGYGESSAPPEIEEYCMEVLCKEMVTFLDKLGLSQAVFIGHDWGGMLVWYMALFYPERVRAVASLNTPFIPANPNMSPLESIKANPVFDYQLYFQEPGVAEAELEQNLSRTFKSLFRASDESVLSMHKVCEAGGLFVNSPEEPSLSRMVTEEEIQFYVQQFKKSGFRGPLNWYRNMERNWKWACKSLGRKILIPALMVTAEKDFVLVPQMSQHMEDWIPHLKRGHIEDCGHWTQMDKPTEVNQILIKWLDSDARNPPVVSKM
As to the kind of experiment: Cell-free sEH activity (PHOME fluorescence). Format: biochemical. Conditions: human isolated sEH. On the procedure: Human recombinant sEH was expressed in Sf9 insect cells and purified by affinity chromatography. […] Elution with 4-fluorochalcone oxide in PBS pH 7.4 with 1 mM dithiothreitol and 1 mM EDTA yielded sEH, which was dialyzed and concentrated. Purified sEH (60 ng) in 25 mM Tris HCl pH 7 with 0.1 mg/mL bovine serum albumin (BSA) was preincubated with the vehicle (DMSO) or test compounds for 1 min at room temperature. The sEH substrate PHOME (20 μM, Cayman Chemicals) was added to start the enzymatic reaction, which was stopped after 60 min in the dark by the addition of ZnSO4 (200 mM).

Assay [1] deals with T2, 5-LOX (Homo sapiens, UniProt P09917).
T2 sequence (P09917 1-674): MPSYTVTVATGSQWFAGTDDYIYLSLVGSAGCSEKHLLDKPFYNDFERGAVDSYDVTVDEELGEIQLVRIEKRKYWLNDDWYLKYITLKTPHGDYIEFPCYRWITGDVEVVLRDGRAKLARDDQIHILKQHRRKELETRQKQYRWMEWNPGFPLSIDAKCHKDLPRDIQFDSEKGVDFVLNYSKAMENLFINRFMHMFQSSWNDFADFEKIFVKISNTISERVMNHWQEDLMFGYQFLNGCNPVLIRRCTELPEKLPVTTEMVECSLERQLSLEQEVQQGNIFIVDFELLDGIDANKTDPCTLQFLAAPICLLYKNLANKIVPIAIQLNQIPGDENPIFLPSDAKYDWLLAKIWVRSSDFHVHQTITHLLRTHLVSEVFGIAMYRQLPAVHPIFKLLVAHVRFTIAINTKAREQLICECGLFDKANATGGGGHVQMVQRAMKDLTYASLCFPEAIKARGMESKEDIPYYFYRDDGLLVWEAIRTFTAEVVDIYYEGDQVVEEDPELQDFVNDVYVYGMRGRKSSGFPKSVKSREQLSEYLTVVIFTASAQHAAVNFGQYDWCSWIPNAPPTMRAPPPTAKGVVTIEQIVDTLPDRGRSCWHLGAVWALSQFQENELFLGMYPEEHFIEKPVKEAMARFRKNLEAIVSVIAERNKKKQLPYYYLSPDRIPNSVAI
The assay is described as follows: 5-LOX product formation in human activated PMNL (A23187). Type of assay: cell-based. As to conditions: for remaining activity at 10 µM / IC50: human activated PMNL; for remaining activity at 10 µM: read-out: 5-LOX residual activity in PMNL (%) at 10 μM; for remaining activity: PMNL, read-out: 5-LO residual activity in PMNL (%). Further details: Freshly isolated PMNL (5 × 10^6) suspended in PBS pH 7.4 with 1 mg/mL glucose were preincubated with the test compounds; endogenous in cells; host or cells: human PMNL from donor blood; remaining activity: dose or concentration left out as unconfirmed. The protocol:
Human PMNL were freshly isolated from leukocyte concentrates that were obtained from the Institute for Transfusion Medicine of the University Hospital Jena (Germany). […] These volunteers regularly donated blood (every 8–12 weeks) and were physically inspected by a clinician. […] Leukocytes were concentrated by centrifugation (4000g/20 min/20 °C) of freshly withdrawn blood. […] PMNL were obtained from the cell pellet. […] The reaction was stopped with an equal volume of methanol containing PGB1 (200 ng) as internal standard. Major 5-LOX products (all-trans isomers of LTB and 5-HETE, and additionally LTB4) were extracted and analyzed by RP-HPLC as described for the determination of cell-free 5-LOX activity.

For assay [2], the target named is T2, 5-LOX. As to the kind of experiment: Cell-free 5-LOX activity assay. As to conditions: for IC50: human isolated 5-LOX; for inhibition of 5-LOX activity, times lower than 6: isolated 5-LOX, relative to compound 6. Further details: made in house; host or cells: Escherichia coli Bl21 (DE3). Type of assay: biochemical. On the procedure: Human recombinant 5-LOX was expressed in Escherichia coli Bl21 (DE3) cells that were transformed with the plasmid pT3-5LO (wt 5-LOX) and purified on an adenosine triphosphate (ATP)-agarose column by affinity chromatography.[40],[41] In a first step, E. coli was lysed in 50 mM triethanolamine/HCl pH 8.0 with ethylenediamine tetraacetic acid (EDTA) (5 mM), soybean trypsin inhibitor (60 μg/mL), phenylmethanesulfonyl fluoride (1 mM), dithiothreitol (1 mM), and lysozyme (1 mg/mL) and sonicated 3 times for 15 s. The homogenate was centrifuged at 40,000g for 20 min at 4 °C. The supernatant was transferred to an ATP-agarose column (Sigma-Aldrich, Deisenhofen, Germany), which was sequentially washed with phosphate-buffered saline (PBS) pH 7.4, 1 mM EDTA, 50 mM phosphate buffer pH 7.4, 0.5 M NaCl, 1 mM EDTA, and finally 50 mM phosphate buffer pH 7.4 plus 1 mM EDTA. The enzyme was eluted with 50 mM phosphate buffer pH 7.4, 1 mM EDTA, and 20 mM ATP.
5-LOX product formation was started by the addition of 20 μM arachidonic acid (Sigma-Aldrich) and CaCl2 (2 mM) and stopped by the addition of an equal volume of ice-cold methanol containing PGB1 (200 ng) as internal standard after 10 min at 37 °C.

Turning to `O=C(O)CCCn1ccc2cc(NC(=O)NCC34C[C@H]5C[C@@H](C3)C[C@@H](C4)C5)ccc21` [Compound 38, 4-(5-(3-(((3R,5R,7R)-Adamantan-1-yl)methyl)ureido)-1H-indol-1-yl)butanoic Acid], on Human recombinant sEH, the half-inhibitory concentration (IC50) turned out to be 0.0533 ± 0.0159 µM. On 5-LOX [1], the remaining activity at 10 µM is 41.2 ± 7.8%, the remaining activity amounted to 41.2 ± 7.8% and the IC50 came out at 8.15 ± 1.86 µM. Further, at 5-LOX [2], the IC50 was over 1 µM.
With `O=C(Nc1ccc2c(c1)CCN2Cc1ccc(F)cc1)C12C[C@H]3C[C@@H](C1)C[C@@H](C2)C3` [Compound 3, (3R,5R,7R)-N-(1-(4-Fluorobenzyl)indolin-5-yl)adamantane-1-carboxamide], at Human recombinant sEH, the half-inhibitory concentration (IC50) was 0.285 ± 0.0312 µM. For the same compound, at 5-LOX [1], the remaining activity at 10 µM came to 53.2 ± 9.9% and the remaining activity came to 53.2 ± 9.9%. Besides, on 5-LOX [2], the IC50 was 0.074 ± 0.018 µM.
`COC(=O)c1ccc(Cn2ccc3cc(NC(=O)NCC45C[C@H]6C[C@@H](C4)C[C@@H](C5)C6)ccc32)cc1` [Compound 29, Methyl 4-((5-(3-(((3R,5R,7R)-Adamantan-1-yl)methyl)ureido)-1H-indol-1-yl)methyl)benzoate]: the IC50 on Human recombinant sEH was 0.0114 ± 0.0036 µM; against 5-LOX [2], over 1 µM. The remaining activity at 10 µM at 5-LOX [1] was 65.1 ± 9.4%. The remaining activity at 5-LOX [1] stood at 65.1 ± 9.4%.
With `NCc1ccc(Cn2ccc3cc(NC(=O)NCC45C[C@H]6C[C@@H](C4)C[C@@H](C5)C6)ccc32)cc1` [Compound 42, 1-(((3R,5R,7R)-Adamantan-1-yl)methyl)-3-(1-(4-(aminomethyl)benzyl)-1H-indol-5-yl)urea], on Human recombinant sEH, the 50% inhibitory concentration (IC50) came out at 0.0149 ± 0.0046 µM. For the same compound, on 5-LOX [1], the remaining activity at 10 µM came to 6.6 ± 4%, the remaining activity amounted to 6.6 ± 4% and the 50% inhibitory concentration (IC50) was 6.19 ± 2.41 µM. In addition, at 5-LOX [2], the IC50 is over 1 µM.
Turning to `O=C(Nc1ccc2c(ccn2Cc2ccc(F)cc2)c1)NC12C[C@H]3C[C@@H](C1)C[C@@H](C2)C3` [Compound 33, 1-((3S,5S,7S)-Adamantan-1-yl)-3-(1-(4-fluorobenzyl)-1H-indol-5-yl)urea], the IC50 was 0.0134 ± 0.0031 µM at Human recombinant sEH and over 1 µM against 5-LOX [2]. Moreover, at 5-LOX [1], the remaining activity was 97.8 ± 0.3%.
`CN1CCCN(CCNC(=O)Nc2ccc3c(c2)CCN3Cc2ccc(F)cc2)CC1` [Compound 8, 1-(1-(4-Fluorobenzyl)indolin-5-yl)-3-(2-(4-methyl-1,4-diazepan-1-yl)ethyl)urea]: the IC50 at Human recombinant sEH was over 10 µM. On 5-LOX [1], the remaining activity at 10 µM came out at 71.1 ± 6.6% and the remaining activity is 71.1 ± 6.6%. Also, the IC50 on 5-LOX [2] is over 1 µM.
For `NCCCn1ccc2cc(NC(=O)NCC34CC5CC(CC(C5)C3)C4)ccc21` [Compound 39, 1-(((3R,5R,7R)-Adamantan-1-yl)methyl)-3-(1-(3-aminopropyl)-1H-indol-5-yl)urea], at Human recombinant sEH, the IC50 worked out at 0.0272 ± 0.0118 µM. Besides, on 5-LOX [1], the remaining activity at 10 µM is 51.8 ± 13% and the remaining activity was determined as 51.8 ± 13%. The IC50 on 5-LOX [2] is over 1 µM.
As to `O=C(NCC12C[C@H]3C[C@@H](C1)C[C@@H](C2)C3)Nc1ccc2c(c1)CCN2Cc1ccc(F)cc1` [Compound 5, 1-(((3R,5R,7R)-Adamantan-1-yl)methyl)-3-(1-(4-fluorobenzyl)indolin-5-yl)urea], on Human recombinant sEH, the IC50 is 0.0111 ± 0.006 µM. On 5-LOX [1], the remaining activity at 10 µM turned out to be 79.7 ± 2.8% and the remaining activity came to 73.7 ± 2.8%. Besides, the IC50 against 5-LOX [2] was found to be 0.078 ± 0.053 µM.
Take `O=C(NCC12C[C@H]3C[C@@H](C1)C[C@@H](C2)C3)Nc1ccc2c(c1)c1ccccc1n2Cc1ccc(F)cc1` [Compound 48, 1-(((3R,5R,7R)-Adamantan-1-yl)methyl)-3-(9-(4-fluorobenzyl)-9H-carbazol-3-yl)urea]: the IC50 on Human recombinant sEH is 0.02 ± 0.0038 µM; against 5-LOX [2], over 1 µM. Also, the remaining activity at 10 µM on 5-LOX [1] was 92.6 ± 4%. Besides, on 5-LOX [1], the remaining activity came out at 92.6 ± 4%.
On to `CC1(C)C2CC[C@@]1(CS(=O)(=O)Nc1ccc3c(c1)CCN3Cc1ccc(F)cc1)C(=O)C2` [Compound 4, 1-((1S)-7,7-Dimethyl-2-oxobicyclo[2.2.1]heptan-1-yl)-N-(1-(4-fluorobenzyl)indolin-5-yl)methanesulfonamide], for which the IC50 at Human recombinant sEH was 1.8 ± 0.46 µM. In addition, at 5-LOX [1], the remaining activity at 10 µM is 2.5 ± 2.5%, the remaining activity came to 2.5 ± 2.5% and the IC50 was found to be 2.56 µM. At 5-LOX [2], the IC50 was found to be 0.171 ± 0.066 µM and the “inhibition of 5-LOX activity, times lower than 6” value was “around 2.5 times”.
With `O=C(NCC12C[C@H]3C[C@@H](C1)C[C@@H](C2)C3)Nc1ccc2c(ccn2Cc2ccc(C(=O)O)cc2)c1` [Compound 37, 4-((5-(3-(((3R,5R,7R)-Adamantan-1-yl)methyl)ureido)-1H-indol-1-yl)methyl)benzoic Acid], the half-inhibitory concentration (IC50) at Human recombinant sEH turned out to be 0.0151 ± 0.0077 µM. In addition, at 5-LOX [1], the remaining activity at 10 µM was 2.1 ± 1.1%, the remaining activity turned out to be 2.1 ± 1.1% and the IC50 worked out at 4.4 ± 0.42 µM. In addition, the half-maximal inhibitory concentration (IC50) against 5-LOX [2] is over 1 µM.
Turning to `O=C(NCC12C[C@H]3C[C@@H](C1)C[C@@H](C2)C3)Nc1ccc2c(c1)CCN2Cc1ccc(C(=O)O)cc1` [Compound 14, 4-((5-(3-(((3R,5R,7R)-Adamantan-1-yl)methyl)ureido)indolin-1-yl)methyl)benzoic Acid], the IC50 on Human recombinant sEH is 0.0241 ± 0.0041 µM; against 5-LOX [2] it was over 1 µM. In addition, the remaining activity at 10 µM on 5-LOX [1] was 57.7 ± 9.6%. Besides, the remaining activity at 5-LOX [1] amounted to 57.7 ± 9.6%.
In the case of `Fc1ccc(CN2CCc3cc(NC(=S)NCC45C[C@H]6C[C@@H](C4)C[C@@H](C5)C6)ccc32)cc1` [Compound 10, 1-(((3R,5R,7R)-Adamantan-1-yl)methyl)-3-(1-(4-fluorobenzyl)indolin-5-yl)thiourea], the IC50 at Human recombinant sEH is 0.288 ± 0.22 µM; against 5-LOX [2], over 1 µM.
Take `O=C(NCc1cccc2ccccc12)Nc1ccc2c(c1)CCN2Cc1ccc(F)cc1` [Compound 7, 1-(1-(4-Fluorobenzyl)indolin-5-yl)-3-(naphthalen-1-ylmethyl)urea]: the IC50 at Human recombinant sEH is 0.0361 ± 0.0075 µM. Also, at 5-LOX [1], the remaining activity at 10 µM was 56.3 ± 5.1% and the remaining activity is 56.3 ± 5.1%. Moreover, at 5-LOX [2], it took 0.148 ± 0.028 µM to reach half-maximal inhibition (IC50) and the “inhibition of 5-LOX activity, times lower than 6” value was about 2 times.
